# Test results taken from US20180163177A1, “SERUM-FREE CULTURE MEDIUM AND METHOD FOR EXPANDING HEMATOPOIETIC STEM CELLS” (HealthBanks Biotech Co. Ltd., priority 2016, published 2018).
# Test system: CD34+ HSC
# Assay: HSC expansion without feeder layer, in SF-UCM or concentrated SF-UCM with supplements, 12-day culture
# Format: cell-based
# Details: day 12; no feeder layer; SCGM with 6 cytokines and hydrocortisone
# Excerpt: To test potential replacement for the feeder layers, we have tested a serum-free umbilical cord mesenchymal stem cell conditioned medium (SF-UCM) from UC-MSC. The serum-free umbilical cord mesenchymal stem cell conditioned medium is for example produced by the method described above, comprising the steps of: (a) culturing an umbilical cord mesenchymal stem cell in a serum-free cell culture medium (e.g. serum-free SCGM), and (b) isolating the conditioned cell culture medium.
# In FIG. 3A and FIG. 3B, the positive control (PC) group is in IMDM as described above. The PC & S1 groups shown in FIG. 3A and 3B are grown as follows: At day 0, CD34+ HSC are thawed and co-cultured with UC-MSC feeder for 12 days with a cell density of 2.5×10^4 cells/ml, using 5% CS (cord serum)/IMDM medium containing the 6 cytokines and hydrocortisone for PC group or using SCGM containing 6 cytokines, hydrocortisone and 4 supplements for S1 group.
# The S3-2 group was grown as follows: At day 0, CD34+ HSC are thawed and cultured in a culture medium mixture of 50% (v/v) SF-UCM and 50% (v/v) fresh SCGM containing 6 cytokines, hydrocortisone and 4 supplements with a cell density of 2.5×10^4 cells/ml for 12 days. The 6 cytokines, hydrocortisone and 4 supplements used herein are the same as described in example 2.
# During 12-day culture, 50% culture medium is replenished as well as newly prepared UC-MSC feeder every 4 days, and CD34+ cells are maintained at a cell density of 2.5-5×10^4 cells/ml. At day 12, cumulative total cell expansion folds and CD34+ expansion folds are calculated.
# The following experiment is performed to evaluate the effect of replacing feeder layers with SF-UCM or concentrated SF-UCM. The SF-UCM obtained in Example 3 was further concentrated with a 5-10 kDa cut-off membrane (preferably a 5 kDa cut-off membrane) to obtain 10 times concentrated (in volume) conditioned medium. The concentrated conditioned medium was filtered with a 0.22 μm filter, and the filtrate is collected to obtain the desired con. SF-UCM (abbreviated as “c-SF-UCM”). The results of replacing the feeder layers with SF-UCM or con.
# In FIG. 4A and 4B, the PC, Sl, and S3-2 groups are the same as described in Example 3. The S3-3 group is as follows: At day 0, CD34+ HSC are thawed and cultured in a culture medium mixture of 5% (v/v) concentrated SF-UCM and 95% (v/v) SCGM containing 6 cytokines, 4 supplements, and hydrocortisone with a cell density of 2.5×10^4 cells/ml for 12 days. The 6 cytokines, hydrocortisone and 4 supplements used herein are the same as described in example 2. The above medium mixture is 50% replenished every 4 days and the cells (including CD34+ cells) are maintained at a cell density of 2.5-10×10^4 cells/ml. At day 12, cumulative total cell expansion folds and CD34+ (ISHAGE) expansion folds are calculated.
# At day 0, CD34+ HSC are thawed and cultured in a corresponding culture medium in the following groups: (1) SCGM+SP+UCM group: a culture medium mixture of 5% (v/v) c-SF-UCM and 95% (v/v) SCGM containing 6 cytokines, 4 supplements and hydrocortisone; (2) SCGM+SP group: SCGM containing 6 cytokines, 4 supplements and hydrocortisone; (3) SCGM+UCM group: a culture medium mixture of 5% (v/v) c-SF-UCM and 95% (v/v) SCGM containing 6 cytokines and hydrocortisone; and (4) SCGM group: SCGM containing 6 cytokines and hydrocortisone. The 6 cytokines, hydrocortisone and 4 supplements used herein are the same as described in example 2.
# The cells are cultured at a cell density of 2.5×10^4 cells/ml. The above medium mixture is 50-80% replenished every 4 days and the cells (including CD34+ cells) are maintained at a cell density of 2.5-10×10^4 cells/ml. At day 12, cumulative total cell expansion folds and CD34+ (ISHAGE) expansion folds are calculated.
# In this experiment, the PC group and S3-3 group is the same as the previous examples. The culture medium is 50% replenished every 4 days, and cells are maintained at a cell density of 2.5-5×10^4 cells/ml. […]
Molecule,CD34+ (ISHAGE) expansion folds,cumulative total cell expansion folds
"O=C1O[C@H]([C@@H](O)CO)C(O)=C1O [vitamin C, L-ascorbic acid]",alone can support the expansion,alone can support the expansion
"Cc1c(C)c2c(c(C)c1O)CC[C@@](C)(CCC[C@H](C)CCC[C@H](C)CCCC(C)C)O2 [vitamin E, α-tocopherol]",alone is also sufficient in supporting the expansion,alone is also sufficient in supporting the expansion
"transferrin (TF): transferrin, supplement used at 30 μg/ml",does not further increase the enhancement to any appreciable extent,does not further increase the enhancement to any appreciable extent
